In patent publication US8372866B2, “2-aryl and 2-heteroaryl 4H-1-benzopyran-4-one-6-amidino derivatives, new pharmacological agents for the treatment of arthritis, cancer and related pain” (Rottapharm S.p.A., priority 2008, dated 2013):
Structures can show the parent of a compound that is named as a salt.

Row | melting point | Structure (SMILES)
1 | 249.1 to 251.1 °C | N=C(CC1CC1)Nc1ccc2oc(-c3ccc(-n4ccnc4)cc3)c(O)c(=O)c2c1 (as salt: hydrochloride) (hydrate or solvate) [Example 6, 2-[(4-imidazol-1-yl)-phenyl]-3-hydroxy-6-[(1-iminoethyl-2-cyclopropyl)amino]-4H-1-benzopyran-4-one dihydrochloride monohydrate]
2 | 284.5 to 286 °C | CC(=N)Nc1ccc2oc(-c3ccc(O)nc3)c(O)c(=O)c2c1 (as salt: hydrochloride) [Example 21, 2-(6-hydroxypyridin-3-yl)-3-hydroxy-6-[(1-iminoethyl)amino]-4H-1-benzopyran-4-one hydrochloride]
3 | 188.5 to 190 °C | COCCC(=N)Nc1ccc2oc(-c3ccc4c(c3)OCO4)c(O)c(=O)c2c1 (as salt: hydrochloride) [Example 19, 2-(benzo[1,3]dioxol-5-yl)-3-hydroxy-6-[(1-iminopropyl-3-methoxy)amino]-4H-1-benzopyran-4-one hydrochloride]
4 | 311.7 to 312.1 °C | CC(=N)Nc1ccc2oc(-c3ccc(-n4ccnc4)cc3)c(O)c(=O)c2c1 (as salt: hydrochloride) [Example 5, 2-[(4-imidazol-1-yl)-phenyl]-3-hydroxy-6-[(1-iminoethyl)amino]-4H-1-benzopyran-4-one hydrochloride]
5 | 291 to 292 °C | CC(=N)Nc1ccc2oc(-c3ccc4c(c3)CCO4)c(O)c(=O)c2c1 (as salt: hydrochloride) [Example 15, 2-(dihydrobenzofuran-5-yl)-3-hydroxy-6-[(1-iminoethyl)amino]-4H-1-benzopyran-4-one hydrochloride]
6 | 260.1 to 261.1 °C | COc1ccc(-c2oc3ccc(NC(C)=N)cc3c(=O)c2O)cc1 (as salt: hydrochloride) (hydrate or solvate) [Example 12, 2-(4-methoxyphenyl)-3-hydroxy-6-[(1-iminoethyl)amino]-4H-1-benzopyran-4-one hydrochloride monohydrate]

Row | Structure (SMILES) | melting point
7 | CC(=N)Nc1ccc2oc(-c3ccccc3)cc(=O)c2c1 (as salt: hydrochloride) [Example 1, 2-phenyl-6-[(1-iminoethyl)amino]-4H-1-benzopyran-4-one hydrochloride] | 278.2 to 278.8 °C
